In patent US20250043299A1, “POINT MUTATIONS THAT BOOST AROMATIC AMINO ACID PRODUCTION AND CO2 ASSIMILATION IN PLANTS” (Wisconsin Alumni Research Foundation, priority 2021, published 2025):
Where two headings read alike, the source gives them in different places.

Tests used:
[1] = target: T1, DHS2^A4 (Arabidopsis thaliana, UniProt Q00218, G222S); type: biochemical
T1 construct: without the predicted plastid transit peptide (amino acid residues; 49-525, 34-507, and 52-527, respectively); made in house; host or cells: E. coli
Experimental: (§1) To generate recombinant DHS proteins the pET28a vectors carrying the A. thaliana DHS1 (AtDHS1), AtDHS2, or AtDHS3 WT sequence without the predicted plastid transit peptide (amino acid residues; 49-525, 34-507, and 52-527, respectively) were expressed in E. coli Rosetta-2 cells and purified using Ni-affinity chromatography, exactly as was conducted previously (9). To generate DHS proteins with individual sota mutations via site-directed mutagenesis, these pET28a plasmid templates were diluted by 500-fold, mixed with 0.04 U/μL Phusion DNA polymerase (Thermo Scientific), 0.2 mM deoxynucleoside triphosphates (dNTPs), 1× Phusion reaction buffer (Thermo Scientific), and 0.5 μM forward and reverse mutagenesis primers (Table 10). The PCR reaction was run using the following protocol: 98° C. for 30 s followed by 20 cycles of 10 s at 98° C., 20 s at 70° C., 4.5 min at 72° C. with a final extension at 72° C. for 10 min. The PCR products were purified using a QIAquick Gel Extraction Kit (QIAGEN), treated with FastDigest DpnI (Thermo Scientific) to digest methylated plasmid template DNA for 20 min at 37° C., and transformed into E. coli cells. The mutagenized pET28a plasmids were sequenced to confirm that no errors were introduced during the mutagenesis process.
(§2) The DHS enzyme assays were conducted using the colorimetric method that we recently described (9). Briefly, the enzyme solution (7.7 μl) containing 50 mM Hepes (pH 7.4) was preincubated with an effector molecule(s) at room temperature for 15 min. For assays using recombinant protein and enzyme fractions isolated from plant leaves, 0.01 to 0.1 μg and approximately 50 μg of proteins were used, respectively. After adding 0.5 μl of 0.1 M dithiothreitol, the samples were further incubated at room temperature for 15 min. During these incubations, the substrate solution containing 50 mM Hepes (pH 7.4), 2 mM MnCl2, 4 mM E4P, and 4 mM PEP at final concentration was preheated at 37° C. The enzyme reaction was started by adding 6.8 μl of the substrate solution, then incubated at 37° C. for 30 min, and terminated by adding 30 μl of 0.6 M trichloroacetic acid. After a brief centrifugation, 5 μl of 200 mM NaIO4 (sodium meta-periodate) in 9 N H3PO4 was added to oxidize the enzymatic product and to incubate at 25° C. for 20 min. To stop the oxidation reaction, 20 μl of 0.75 M NaAsO2 (sodium arsenite), which was dissolved in 0.5 M Na2SO4 and 0.05 M H2SO4, was added and immediately mixed. After 5 min of incubation at room temperature, one-third of the sample solution was transferred to a new tube to be mixed with 50 μl of 40 mM thiobarbituric acid and incubated at 99° C. for 15 min in a thermal cycler. The mixture was added to 600 μl of cyclohexanone in eight-strip solvent-resistant plastic tubes, mixed vigorously, and centrifuged at 4500 g for 3 min to separate water- and cyclohexanone-based layers for the extraction off the developed pink chromophore. The absorbance of the pink supernatant was read at 549 nm with the microplate reader (Infinite 200 PRO, TECAN) to calculate DAHP production with the molar extinction coefficient at 549 nm (ε=549 nm) of 4.5×10^4 M^−1 cm^−1. Reaction mixtures with boiled enzymes were run in parallel and used as negative controls to estimate the background signal.

[2] = target: T2, Arabidopsis thaliana DHS2 (AtDHS2), wild type (DHS2^WT), SEQ ID NO:2 (Arabidopsis thaliana, UniProt Q00218); conditions: DHS2^WT; values for AAAs, chorismate, caffeate from Yokoyama et al., Plant Cell, 2021; cited from earlier work
T2 construct: without the predicted plastid transit peptide (amino acid residues; 49-525, 34-507, and 52-527, respectively); made in house; host or cells: E. coli Rosetta-2

[3] = target: T3, Arabidopsis thaliana DHS1 (SEQ ID NO:1) variant DHS1^B4 (sotaB4), G244R (Arabidopsis thaliana, UniProt P29976, G244R); experiment: DHS enzyme assay with effector, DHS1 sotaB4; type: biochemical
T3 construct: without the predicted plastid transit peptide (amino acid residues; 49-525, 34-507, and 52-527, respectively); made in house; host or cells: E. coli
Experimental: as §1, §2

[4] = target: T4, Arabidopsis thaliana DHS1 (AtDHS1), wild type (DHS1^WT), SEQ ID NO:1 (Arabidopsis thaliana, UniProt P29976); conditions: values for AAAs, chorismate, caffeate from Yokoyama et al., Plant Cell, 2021; cited from earlier work
T4 construct: without the predicted plastid transit peptide (amino acid residues; 49-525, 34-507, and 52-527, respectively); made in house; host or cells: E. coli Rosetta-2

[5] = target: T5, DHS1^B4 (Arabidopsis thaliana, UniProt P29976, G244R); experiment: DHS enzyme assay, recombinant DHS1^B4; type: biochemical
T5 construct: without the predicted plastid transit peptide (amino acid residues; 49-525, 34-507, and 52-527, respectively); made in house; host or cells: E. coli
Experimental: as §1, §2

[6] = tested on: Arabidopsis thaliana DHS^WT isoforms (DHS1, DHS2, DHS3), SEQ ID NO:1-3; conditions: reference 9; cited from earlier work
[7] = target: T6, Arabidopsis thaliana DHS2 (SEQ ID NO:2) variant DHS2^A4 (sotaA4), G222S (Arabidopsis thaliana, UniProt Q00218, G222S); experiment: biochemical; type: biochemical
T6 construct: without the predicted plastid transit peptide (amino acid residues; 49-525, 34-507, and 52-527, respectively); made in house; host or cells: E. coli
Experimental: as §1, §2

[8] = tested on: plant DHSs; conditions: prior reports (9); cited from earlier work
[9] = target: T7, DHS1^WT (Arabidopsis thaliana, UniProt P29976); experiment: DHS enzyme assay (colorimetric), recombinant DHS1^WT; type: biochemical
T7 construct: without the predicted plastid transit peptide (amino acid residues; 49-525, 34-507, and 52-527, respectively); made in house; host or cells: E. coli Rosetta-2
Experimental: as §1, §2

[10] = target: T8, DHS2^WT (Arabidopsis thaliana, UniProt Q00218); experiment: DHS enzyme assay, recombinant DHS2^WT; type: biochemical; conditions: FIG. 2D
T8 construct: without the predicted plastid transit peptide (amino acid residues; 49-525, 34-507, and 52-527, respectively); made in house; host or cells: E. coli Rosetta-2
Experimental: as §1, §2

[11] = tested on: Arabidopsis Col-0 WT plants; experiment: Plant growth on media containing ILA or IPA (feeding); type: in vivo, Arabidopsis thaliana; conditions: IPA <10 μM; ILA 0-1000 μM in media
Excerpt: (A) A structural model of A. thaliana DHS2 (AtDHS2, purple) generated from the P. aeruginosa DHS (PaDHS, white) with Trp (magenta) bound. Residues corresponding to the sota mutations mapped onto the AtDHS2 model are highlighted in yellow. (B) Selected regions of the amino acid sequence alignment of PaDHS and AtDHS enzymes, with the positions of the sota mutations indicated by blue, red, green arrows for AtDHS1, AtDHS2, and AtDHS3, respectively. […] Data are means±SEM (n=3). (D) Screening of AAAs and AAA-derived metabolites as potential inhibitors of DHS1^WT and DHS2^WT. *P≤0.05, **P≤0.01, ***P≤0.001, and ****P≤0.0001 denote significant differences by one-way ANOVA with Dunnett's test against the corresponding “No effector” samples. Data are means±SEM (n=3). The dotted horizontal lines separate four sets of independent experiments. […] Data are means±SEM (n=3). (G) Plant picture (left) and fresh weight measurement (right) of 3-week-old Col-0, sotaB4, and sotaA4 mutants (Col-0 background) on the media containing ILA at 0, 250, 500, or 1000 μM. *P≤0.05 and **P≤0.01 denote significant differences by one-way ANOVA with Dunnett's test against the corresponding Col-0 samples (n=12 to 16 independent plant samples). […]

[12] = tested on: Nicotiana benthamiana leaves; experiment: Transient expression of Arabidopsis DHS1 WT and B4 in Nicotiana benthamiana, AAA levels by LC-MS; type: in vivo; conditions: two days after inoculation
Experimental: Vectors for plant expression were made as previously described using MoClo modular cloning technology. For transient expression in Nicotiana benthamiana, gene expression of the protein coding sequence (CDS) of DHS1 WT and B4 were driven by a 1987-bp sequence obtained from the upstream region of the ubiquitin 10 gene (At4g05320) from Arabidopsis. In addition, a synthetic hemagglutinin (HA) tag comprising 6 repeats of the sequence […] (SEQ ID NO:75) was added to the C-terminus of the protein for quantification of protein expression using an anti-HA antibody. Vectors containing the promoter, CDS, epitope HA-tag, and a terminator were transformed into Agrobacterium tumefaciens via electroporation.
Positive transformants were used to perform transient expression in Nicotiana benthamiana. Single colony bacteria were grown in LB media supplemented with kanamycin (100 mg/L) and gentamycin (100 mg/L) at 28° C. with constant agitation at 200 rpm. […] After complete resuspension, bacteria concentration was evaluated by spectrometry using optical density (OD) at 600 nm. […]
Each inoculated leaf was separated into 4 quadrants, and each quadrant received a different bacteria solution containing a different vector. […] Samples for metabolite analysis were collected two days after inoculation and processed as previously described for quantification of aromatic amino acids.

T3 sequence (P29976 49-525 G244R): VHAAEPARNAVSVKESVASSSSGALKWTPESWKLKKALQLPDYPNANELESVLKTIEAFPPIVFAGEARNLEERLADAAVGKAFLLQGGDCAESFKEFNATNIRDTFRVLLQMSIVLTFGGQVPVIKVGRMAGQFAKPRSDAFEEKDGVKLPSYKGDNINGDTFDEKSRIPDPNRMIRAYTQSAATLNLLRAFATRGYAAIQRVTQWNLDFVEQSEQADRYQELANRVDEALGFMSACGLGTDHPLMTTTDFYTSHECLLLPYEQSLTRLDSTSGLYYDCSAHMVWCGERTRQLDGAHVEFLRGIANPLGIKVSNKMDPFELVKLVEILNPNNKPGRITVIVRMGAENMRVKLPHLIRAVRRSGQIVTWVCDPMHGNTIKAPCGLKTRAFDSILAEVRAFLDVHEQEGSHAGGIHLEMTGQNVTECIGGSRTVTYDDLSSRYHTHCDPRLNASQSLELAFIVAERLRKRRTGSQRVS
T7 sequence (P29976 49-525): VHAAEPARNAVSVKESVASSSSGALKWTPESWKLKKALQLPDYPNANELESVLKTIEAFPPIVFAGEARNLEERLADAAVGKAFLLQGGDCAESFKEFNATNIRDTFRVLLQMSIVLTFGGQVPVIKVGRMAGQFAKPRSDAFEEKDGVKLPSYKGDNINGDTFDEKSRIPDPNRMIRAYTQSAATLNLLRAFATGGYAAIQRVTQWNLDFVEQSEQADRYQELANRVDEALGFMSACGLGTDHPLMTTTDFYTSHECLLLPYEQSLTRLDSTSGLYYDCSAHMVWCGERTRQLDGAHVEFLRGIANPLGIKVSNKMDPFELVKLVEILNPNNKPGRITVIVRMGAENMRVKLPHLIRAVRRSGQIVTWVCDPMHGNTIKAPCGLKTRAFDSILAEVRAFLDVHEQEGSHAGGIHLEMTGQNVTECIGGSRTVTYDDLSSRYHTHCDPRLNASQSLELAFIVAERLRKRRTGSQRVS
T6 sequence (Q00218 34-507 G222S): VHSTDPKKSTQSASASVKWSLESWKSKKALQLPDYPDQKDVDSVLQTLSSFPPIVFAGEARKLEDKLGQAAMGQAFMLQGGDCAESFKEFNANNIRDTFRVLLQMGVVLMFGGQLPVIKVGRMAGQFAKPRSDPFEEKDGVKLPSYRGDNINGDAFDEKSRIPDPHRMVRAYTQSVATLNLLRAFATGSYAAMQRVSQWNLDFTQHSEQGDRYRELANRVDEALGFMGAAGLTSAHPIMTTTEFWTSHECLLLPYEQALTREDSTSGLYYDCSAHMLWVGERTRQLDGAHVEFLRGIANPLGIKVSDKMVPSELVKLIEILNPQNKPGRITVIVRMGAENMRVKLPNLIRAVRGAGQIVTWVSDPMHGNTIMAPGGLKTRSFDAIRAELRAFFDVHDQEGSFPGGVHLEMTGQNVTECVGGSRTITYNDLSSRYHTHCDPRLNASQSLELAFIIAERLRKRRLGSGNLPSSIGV
T1 sequence (Q00218 34-507 G222S): as above
T5 sequence (P29976 49-525 G244R): as the sequence (P29976 49-525 G244R) above
T4 sequence (P29976 49-525): as the sequence (P29976 49-525) above
T8 sequence (Q00218 34-507): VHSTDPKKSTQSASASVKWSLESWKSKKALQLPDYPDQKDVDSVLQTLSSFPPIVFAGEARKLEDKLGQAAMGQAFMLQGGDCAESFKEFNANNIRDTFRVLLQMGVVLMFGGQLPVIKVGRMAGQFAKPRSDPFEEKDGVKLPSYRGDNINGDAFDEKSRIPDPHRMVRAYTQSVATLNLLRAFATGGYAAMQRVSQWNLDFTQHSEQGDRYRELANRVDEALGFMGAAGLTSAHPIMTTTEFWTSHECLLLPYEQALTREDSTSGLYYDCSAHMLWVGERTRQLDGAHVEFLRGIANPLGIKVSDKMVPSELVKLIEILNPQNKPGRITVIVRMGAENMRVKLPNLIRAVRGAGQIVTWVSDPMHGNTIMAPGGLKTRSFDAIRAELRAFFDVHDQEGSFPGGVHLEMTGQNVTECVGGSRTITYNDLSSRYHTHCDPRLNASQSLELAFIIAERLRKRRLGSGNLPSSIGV
T2 sequence (Q00218 34-507): as above

Compound: C=C(O[C@@H]1C=C(C(=O)O)C=C[C@H]1O)C(=O)O [Chorismate]
- inhibition of DHS2^A4 activity ([1]; effector up to 1 mM): still inhibited
- IC50 ([1]; recombinant enzyme, read-out: IC50 of effector molecule on DHS2^A4): 102 µM
- IC50 [2]: 81 µM
- IC50 [3]: 25.3 µM
- inhibition of DHS1^B4 ([3]; FIG. 19): still strongly inhibited
- IC50 [4]: 14.6 µM
- inhibition of DHS1^B4 activity [5]: still strongly inhibited
- IC50 ([5]; recombinant enzyme, read-out: IC50 of effector molecule on DHS1^B4): 25.3 µM
- inhibition of all Arabidopsis DHS isoforms [6]: strongly inhibit all Arabidopsis DHS isoforms
- IC50 [7]: 101 µM
- inhibition of DHS2^A4 ([7]; up to 1 mM Tyr, Trp (FIG. 2C), shikimate, arogenate, prephenate at 1 mM (FIG. 21A)): still inhibited

Compound: O=C[C@H](O)[C@H](O)COP(=O)(O)O [E4P, erythrose-4-phosphate]
- Km for E4P [8]: high

Compound: O=C(O)C(O)Cc1c[nH]c2ccccc12 (stereo not drawn) [ILA, Indole-3-lactate]
- effect on DHS1 activity (effector screening) ([9]; FIG. 2D): reduced the activity
- IC50 ([9]; recombinant enzyme, read-out: IC50 of effector molecule on DHS1^WT): 210 µM
- effect on DHS2 activity (effector screening) [10]: reduced the activity
- effect of feeding on plant growth [11]: growth inhibition
- IC50 ([3]; DHS1^B4, 4 mM E4P, 4 mM PEP, pH 7.4, 37° C.): 2880 µM

Compound: Arabidopsis DHS1 sotaB4 mutant: Arabidopsis DHS1 enzyme with the sotaB4 mutation (G244R)
- production of tyrosine and phenylalanine in the tobacco plant [12]: significantly elevated production
